The test has as its system HeLa cervical carcinoma cell line. The experiment in a line: Cellular cytotoxicity assay (Alamar Blue / Resazurin). The settings on record: Homo sapiens; HeLa cells, 48 hours incubation; read-out: IC50 (anti-proliferative/cytotoxic potency). The test is classed as cell-based. The method, then: The anti-proliferative activity of the histone deacetylase inhibitory compounds as described herein, is evaluated with the HeLa cervical carcinoma cell line (ATCC CCL2) using the Alamar Blue (Resazurin) cell viability assay (O'Brien et al. Eur J Biochem 267, 5421-5426, 2000). Resazurin is reduced to the fluorescent resorufin by cellular dehydrogenase activity, correlating with viable, proliferating cells. Test compounds are dissolved as 10 mM solutions in dimethylsulfoxide (DMSO) and subsequently diluted in semi-logarithmic steps. HeLa cells are seeded into 96 well flat bottom plates at a density of 3000 cells per well in a volume of 200 μl per well. 24 hours after seeding 1 μl each of the compound dilutions are added into each well of the 96 Well plate. Each compound dilution is tested as quadruplicates. Wells containing untreated control cells are filled with 200 μl DMEM medium containing 0.5% v:v DMSO. The cells are then incubated with the substances for 48 hours at 37° C. in a humidified atmosphere containing 5% carbon dioxide. To determine the viability of the cells, 20 μl of an Resazurin solution (Sigma; 90 mg/l) are added. After 4 hours incubation at 37° C. the fluorescence is measured at an extinction of 544 nm and an emission of 590 nm. For the calculation of the cell viability the emission value from untreated cells is set as 100% viability and the emission rates of treated cells are set in relation to the values of untreated cells. Viabilites are expressed as % values. The corresponding IC50 values of the compounds for cytotoxic activity are determined from the concentration-effect curves by means of non-linear regression.

The structures appear in SMILES notation.

Regarding `O=C(/C=C/c1ccn(S(=O)(=O)c2ccc(-c3cccc(OCCN4CCCC4)c3)cc2)c1)NO` [Compound 80, (E)-N-Hydroxy-3-{1-[3′-(2-pyrrolidin-1-yl-ethoxy)-biphenyl-4-sulfonyl]-1H-pyrrol-3-yl}-acrylamide], the IC50 fell in the range of 0.014 to 6.7 µM. Turning to `O=C(/C=C/c1ccn(S(=O)(=O)c2ccc(-c3ccc(OCCCN4CCCC4)cc3)cc2)c1)NO` [Compound 81, (E)-N-Hydroxy-3-{1-[4′-(3-pyrrolidin-1-yl-propoxy)-biphenyl-4-sulfonyl]-1H-pyrrol-3-yl}-acrylamide], the IC50 lay within 0.014 to 6.7 µM.

Consider `COc1ccc(-c2ccc(S(=O)(=O)n3ccc(/C=C/C(=O)NO)c3)cc2)cc1` [Compound 82, (E)-N-Hydroxy-3-[1-(4′-methoxy-biphenyl-4-sulfonyl)-1H-pyrrol-3-yl]-acrylamide], for which the IC50 fell in the range of 0.014 to 6.7 µM. Next, `O=C(/C=C/c1ccn(S(=O)(=O)c2ccc(-c3cn(CCN4CCOCC4)nn3)cc2)c1)NO` [Compound 83, (E)-N-Hydroxy-3-(1-{4-[1-(2-morpholin-4-yl-ethyl)-1H-[1,2,3]triazol-4-yl]-benzenesulfonyl}-1H-pyrrol-3-yl)-acrylamide]: 0.014 to 6.7 µM; `O=C(/C=C/c1ccn(S(=O)(=O)c2ccc(-c3ccc(CNC4CCCC4)cc3)cc2)c1)NO` [Compound 84, (E)-3-[1-(4′-Cyclopentylaminomethyl-biphenyl-4-sulfonyl)-1H-pyrrol-3-yl]-N-hydroxy-acrylamide]: 0.014 to 6.7 µM. Next, `O=C(/C=C/c1ccn(S(=O)(=O)c2ccc(-c3cccc(C(F)(F)F)c3)cc2)c1)NO` [Compound 85, (E)-N-Hydroxy-3-[1-(3′-trifluoromethyl-biphenyl-4-sulfonyl)-1H-pyrrol-3-yl]acrylamide]: 0.014 to 6.7 µM.

`CN(C)Cc1ccc(-c2ccc(S(=O)(=O)n3ccc(/C=C/C(=O)Nc4ccccc4N)c3)cn2)cc1` [Compound 89, (E)-N-(2-Amino-phenyl)-3-{1-[6-(4-dimethylaminomethyl-phenyl)-pyridine-3-sulfonyl]-1H-pyrrol-3-yl}-acrylamide]: the IC50 is 0.014 to 6.7 µM. Next, `Cc1nc(-c2ccc(S(=O)(=O)n3ccc(/C=C/C(=O)NO)c3)s2)cs1` [Compound 90, (E)-N-Hydroxy-3-{1-[5-(2-methyl-thiazol-4-yl)-thiophene-2-sulfonyl]-1H-pyrrol-3-yl}-acrylamide]: 0.014 to 6.7 µM; `NCc1ccc(-c2ccccc2)cc1S(=O)(=O)n1ccc(/C=C/C(=O)NO)c1` [Compound 91, (E)-3-[1-(4-Aminomethyl-biphenyl-3-sulfonyl)-1H-pyrrol-3-yl]-N-hydroxy-acrylamide]: 0.014 to 6.7 µM; `O=C(/C=C/c1ccn(S(=O)(=O)c2ccc(-c3ccc(OCCN4CCCC4)cc3)nc2)c1)NO` [Compound 92, (E)-N-Hydroxy-3-(1-{6-[4-(2-pyrrolidin-1-yl-ethoxy)-phenyl]-pyridine-3-sulfonyl}-1H-pyrrol-3-yl)-acrylamide]: 0.014 to 6.7 µM. Next, `NCc1cccc(-c2ccc(S(=O)(=O)n3ccc(/C=C/C(=O)NO)c3)s2)c1` [Compound 94, (E)-3-{1-[5-(3-Aminomethyl-phenyl)-thiophene-2-sulfonyl]-1H-pyrrol-3-yl}-N-hydroxy-acrylamide]: 0.014 to 6.7 µM; `CN(C)Cc1ccc(-c2ccc(S(=O)(=O)n3ccc(/C=C/C(=O)Nc4ccccc4N)c3)s2)cc1` [Compound 95, (E)-N-(2-Amino-phenyl)-3-{1-[5-(4-dimethylaminomethyl-phenyl)-thiophene-2-sulfonyl]-1H-pyrrol-3-yl}-acrylamide]: 0.014 to 6.7 µM; `CN(C)Cc1cccc(-c2ccc(S(=O)(=O)n3ccc(/C=C/C(=O)Nc4ccccc4N)c3)cc2)c1` [Compound 96, (E)-N-(2-Amino-phenyl)-3-[1-(3′-dimethylaminomethyl-biphenyl-4-sulfonyl)-1H-pyrrol-3-yl]-acrylamide]: 0.014 to 6.7 µM. Turning to `CC(=O)NCc1ccc(-c2ccc(S(=O)(=O)n3ccc(/C=C/C(=O)Nc4ccccc4N)c3)cc2)cc1` [Compound 97, (E)-3-{1-[4′-(Acetylamino-methyl)-biphenyl-4-sulfonyl]-1H-pyrrol-3-yl}-N-(2-amino-phenyl)-acrylamide], the IC50 was 0.014 to 6.7 µM. For `CS(=O)(=O)NCc1ccc(-c2ccc(S(=O)(=O)n3ccc(/C=C/C(=O)Nc4ccccc4N)c3)cc2)cc1` [Compound 98, (E)-N-(2-Amino-phenyl)-3-{1-[4′-(methanesulfonylamino-methyl)biphenyl-4-sulfonyl]-1H-pyrrol-3-yl}-acrylamide], the IC50 lay within 0.014 to 6.7 µM. Next, `O=C(C=Cc1ccn(S(=O)(=O)c2ccc(-c3ccc(OCCN4CCCC4)cc3)s2)c1)NO` [Compound 99, (E)-N-Hydroxy-3-(1-{5-([4-(2-pyrrolidin-1-yl-ethoxy)-phenyl]-thiophene-2-sulfonyl}-1H-pyrrol-3-yl)-acrylamide]: 0.014 to 6.7 µM. Next, `CN(C)S(=O)(=O)c1ccc(-c2ccc(S(=O)(=O)n3ccc(/C=C/C(=O)NO)c3)s2)cc1` [Compound 100, (E)-3-{1-[5-(4-Dimethylsulfamoyl-phenyl)-thiophene-2-sulfonyl]-1H-pyrrol-3-yl}-N-hydroxy-acrylamide]: 0.014 to 6.7 µM.

On to `CS(=O)(=O)Nc1ccc(-c2cccc(S(=O)(=O)n3ccc(/C=C/C(=O)Nc4ccccc4N)c3)c2)cc1` [Compound 101, (E)-N-(2-Amino-phenyl)-3-[1-(4′-methanesulfonylamino-biphenyl-3-sulfonyl)-1H-pyrrol-3-yl]-acrylamide], for which the IC50 lay in the range of 0.014 to 6.7 µM.

As to `CN(C)Cc1ccc(-c2cccc(S(=O)(=O)n3ccc(/C=C/C(=O)Nc4ccccc4N)c3)c2)cc1` [Compound 102, (E)-N-(2-Amino-phenyl)-3-[1-(4′-dimethylaminomethyl-biphenyl-3-sulfonyl)-1H-pyrrol-3-yl]-acrylamide], the IC50 was 0.014 to 6.7 µM.

Regarding `CN1CCN(c2cc(-c3ccc(S(=O)(=O)n4ccc(/C=C/C(=O)NO)c4)cn3)ccn2)CC1` [Compound 103, (E)-N-Hydroxy-3-{1-[2′-(4-methyl-piperazin-1-yl)-[2,4′]bipyridinyl-5-sulfonyl]-1H-pyrrol-3-yl}-acrylamide], the IC50 was in the range of 0.014 to 6.7 µM. Next, `Cn1cc(-c2ccc(S(=O)(=O)n3ccc(/C=C/C(=O)Nc4ccccc4N)c3)s2)cn1` [Compound 104, (E)-N-(2-Amino-phenyl)-3-{1-[5-(1-methyl-1H-pyrazol-4-yl)-thiophene-2-sulfonyl]-1H-pyrrol-3-yl}-acrylamide]: 0.014 to 6.7 µM; `CN(C)Cc1ccc(-c2ccc(S(=O)(=O)n3ccc(/C=C/C(=O)NO)c3)cn2)cc1` [Compound 105, (E)-3-{1-[6-(4-Dimethylaminomethyl-phenyl)-pyridine-3-sulfonyl]-1H-pyrrol-4-yl}-N-hydroxy-acrylamide]: 0.014 to 6.7 µM; `CN1CCN(c2cc(-c3ccc(S(=O)(=O)n4ccc(/C=C/C(=O)Nc5ccccc5N)c4)s3)ccn2)CC1` [Compound 106, (E)-N-(2-Amino-phenyl)-3-(1-{5-[2-(4-methyl-piperazin-1-yl)-pyridin-4-yl]-thiophene-2-sulfonyl}-1H-pyrrol-3-yl)-acrylamide]: 0.014 to 6.7 µM. Next, `Nc1ccccc1NC(=O)/C=C/c1ccn(S(=O)(=O)c2ccc(-c3ccc(OCCN4CCCC4)cc3)cc2)c1` [Compound 108, (E)-N-(2-Amino-phenyl)-3-{1-[4′-(2-pyrrolidin-1-yl-ethoxy)-biphenyl 4-sulfonyl]-1H-pyrrol-3-yl}-acrylamide]: 0.014 to 6.7 µM.

Source of the values: patent US7666868B2, “N-sulphonylpyrroles and their use as histone deacetylase inhibitors” (4SC AG, priority 2005, dated 2010).
